Test results: US20240325544A1, “CATIONIC LIPID FOR COVALENT MODIFICATION OF PEPTIDES” (PharmalN Corporation, priority 2023, published 2024)
Bridge positions count the residues as written; N and C are the ends. Square brackets hold non-standard residues; d marks the D form. Peptide text beside a SMILES is read from it. * marks the point of attachment. Palmitoyl = CCCCCCCCCCCCCCCC(=O)*; Dap = NC[C@H](N)C(=O)O; AEEA = NCCOCCOCC(=O)O

Assays:
C57BL/6J mice = assay: Bleomycin mouse model of idiopathic pulmonary fibrosis, alveolar area (FIG. 8); type: in vivo; conditions: Day 21
Description: FIGS. 8A-8B. […] Additionally, a normal control group (NC; n=3) without Bleo, and a Bleo Control group (n=7) without test article treatment were also included in this study. On Day 21 post Bleo administration, the mice were sacrificed under isoflurane anesthesia, and their lung tissues were harvested. FIG. 8B) A part of the lung tissue was fixed in 4% PFA, and Azan staining was performed, and alveolar areas (inversely proportional to the degree of fibrosis) were measured by Image J in a blinded setting. Error bars indicate standard error of the mean. Statistical analysis was performed by Student t-test on GraphPad Prism (n=3, 7, 7, 7, and 7); NC, Bleo Control, SEQ ID NO: 31, Pir, and Combo (SEQ ID NO: 31 & pirfenidone) *** P<0.001, ns=not significant vs NC.
Animal care and treatment: Male C57BL/6J mice (6 weeks-old) were purchased from Kyudo (Saga, Japan) and maintained under a 12-hour light/12-hour dark cycle with free access to water and standard mouse diet (MF diet, Oriental Yeast Co., Ltd. Tokyo, Japan). To induce lung fibrosis, mice received IT administration of bleomycin (Bleo; 1.0 mg/kg; Nippon Kayaku Tokyo, Japan). […] Alveolar area, which is inversely proportional to fibrotic area, were measured by Image J in a blinded setting (NIH, Bethesda, MD, USA).

NPR-C = target: T1, NPR-C (Homo sapiens, UniProt P17342); assay: cAMP baseline levels in HeLa cells (FIG. 13); type: cell-based; conditions: 10 μg/mL, 10 minutes, 1 mM IBMX
T1 construct: HeLa cells (known to express NPR-C); host or cells: HeLa cells
T1 sequence (P17342 27-541): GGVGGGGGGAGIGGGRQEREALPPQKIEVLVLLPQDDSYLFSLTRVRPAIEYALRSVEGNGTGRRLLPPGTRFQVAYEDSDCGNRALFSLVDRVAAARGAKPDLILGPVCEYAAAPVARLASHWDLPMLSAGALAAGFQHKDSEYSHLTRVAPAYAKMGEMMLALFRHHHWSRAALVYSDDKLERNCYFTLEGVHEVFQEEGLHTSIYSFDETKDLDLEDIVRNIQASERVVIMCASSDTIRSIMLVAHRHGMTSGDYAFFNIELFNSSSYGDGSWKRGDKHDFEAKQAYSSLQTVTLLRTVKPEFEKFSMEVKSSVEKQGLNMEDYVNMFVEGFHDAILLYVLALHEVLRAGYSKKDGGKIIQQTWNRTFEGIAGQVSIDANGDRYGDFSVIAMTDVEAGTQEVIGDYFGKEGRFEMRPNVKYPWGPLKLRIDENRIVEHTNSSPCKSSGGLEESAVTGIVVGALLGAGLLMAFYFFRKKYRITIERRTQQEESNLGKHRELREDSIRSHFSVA
Description: In this study, HeLa cells were cultured in Dulbecco modified Eagle medium (DMEM) supplemented with 10% FBS under 100% humidity and 5% CO2 at 37° C. The cells were harvested and suspended at a concentration of 10^7 cells/mL in ENGS and 5 uL of the cell suspension was added to each well of a 96-well low-adhesion plate. The cells (n=4 wells) were then treated with 5 uL of SEQ ID NO: 31 (final concentration of 10 μg/mL) in ENGS with 1 mM IBMX for 10 minutes. cAMP levels were evaluated using a cAMP assay kit (PerkinElmer, Waltham, MA, USA, #62AM4PEB) in accordance with its manufacture's protocol with a PerkinElmer plate reader. Statistical analysis was performed with GraphPad Prism against untreated control wells (n=4 wells) * P<0.05. The NPR-C receptor has been implicated in inhibiting adenylate cyclase activity, which would lead to a decrease in cyclic adenosine monophosphate (cAMP) production.
In vitro protocol: HeLa cells were purchased from ATCC (Manassas, VA, USA). […] Then, the cells (n=4 wells) were treated with 5 uL of SEQ ID NO: 31 (final concentration of 10 μg/mL) in ENGS with 1 mM IBMX (Fujifilm, Tokyo, Japan, #099-03411) for 10 minutes. cAMP levels were evaluated using a cAMP assay kit (PerkinElmer, Waltham, MA, USA, #62AM4PEB) in accordance with its manufacture's protocol with a plate reader (PerkinElmer, Waltham, MA, USA, #Nivo). […]

## CCCCCCCCCCCCCCCC(=O)NCCOCCOCC(=O)NCCOCCOCC(=O)NCCOCCOCC(=O)N[C@@H](CN)C(=O)N[C@@H](CN)C(=O)NCC(=O)N[C@@H](CC(C)C)C(=O)N[C@@H](CO)C(=O)N[C@@H](CCCCN)C(=O)NCC(=O)N[C@H]1CSSC[C@@H](C(=O)O)NC(=O)CNC(=O)[C@H](CC(C)C)NC(=O)CNC(=O)[C@H](CO)NC(=O)[C@H](CCC(N)=O)NC(=O)[C@H](CO)NC(=O)CNC(=O)[C@H]([C@@H](C)CC)NC(=O)[C@H](CCCNC(=N)N)NC(=O)[C@H](CC(=O)O)NC(=O)[C@H](CC(C)C)NC(=O)[C@H](CCCCN)NC(=O)[C@H](CC(C)C)NC(=O)CNC(=O)[C@H](Cc2ccccc2)NC1=O [SEQ ID NO: 31] ({Palmitoyl-AEEA-AEEA-AEEA}-[Dap][Dap]GLSKGCFGLKLDRIGSQSGLGC-OH; disulfide 8-24; C-terminus assumed)
C57BL/6J mice; alone, 0.3 mg/kg SC once a day on weekdays from day 7
  Alveolar area (inversely proportional to fibrosis): significantly higher alveolar area
C57BL/6J mice; in combination with pirfenidone 100 mg/kg orally
  Alveolar area (inversely proportional to fibrosis): significantly higher alveolar area
NPR-C
  cAMP baseline levels of HeLa cells: changes (inhibition) of cAMP baseline levels
